Measurements as given in patent publication US12077503B2, “Substituted cyclic amides and their use as herbicides” (FMC CORPORATION, priority 2015, dated 2024).

Legend:
Type in all cases: in vivo
[1] = system: ducksalad (Heteranthera limosa); assay: Test B flooded paddy test; details: Flood, 250 g ai/ha; 0 to 100 scale where 0 is no effect and 100 is complete control; 13 to 15 d
How it was run: (§1)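 Response scored visually against untreated controls, 0 = no effect and 100 = complete control, 13–15 d after treatment in the greenhouse. Compounds added to paddy water held 3 cm above soil surface. Treatment given at 2-leaf stage.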

[2] = system: sedge, umbrella (small-flower umbrella sedge, Cyperus difformis); assay: Test B flooded paddy test; details: Flood, 250 g ai/ha; 0 to 100 scale where 0 is no effect and 100 is complete control; 13 to 15 d
How it was run: as §1

[3] = system: rice (Oryra sativa); assay: Test B flooded paddy test; details: Flood, 250 g ai/ha; 0 to 100 scale where 0 is no effect and 100 is complete control; 13 to 15 d
How it was run: as §1

[4] = system: barnyardgrass (Echinochloa crus-galli); assay: Test B flooded paddy test; details: Flood, 250 g ai/ha; 0 to 100 scale where 0 is no effect and 100 is complete control; 13 to 15 d
How it was run: as §1

[5] = system: Kochia (Kochia scoparia); assay: Test A postemergence; details: for Kochia plant response rating: visual injury rating on 0 to 100 scale (0 no effect, 100 complete control)
How it was run: (§2)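 Preemergence soil spray on seeded pots or post-emergence spray on 1–2 leaf plants, in loam–sand blend. Greenhouse ~10 d. Visual rating 0–100 against untreated plants.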

[6] = system: corn (Zea mays); assay: Test A postemergence; details: for Corn plant response rating: visual injury rating on 0 to 100 scale (0 no effect, 100 complete control)
How it was run: as §2

[7] = system: wheat (Triticum aestivum); assay: Test A postemergence; details: for Wheat plant response rating: visual injury rating on 0 to 100 scale (0 no effect, 100 complete control)
How it was run: as §2

[8] = system: pigweed (Amaranthus retroflexus); assay: Test A postemergence; details: for Pigweed plant response rating: visual injury rating on 0 to 100 scale (0 no effect, 100 complete control)
How it was run: as §2

[9] = system: ragweed (common ragweed, Ambrosia elatior); assay: Test A postemergence; details: for Ragweed plant response rating: visual injury rating on 0 to 100 scale (0 no effect, 100 complete control)
How it was run: as §2

[10] = system: Galium (catchweed bedstraw, Galium aparine); assay: Test A postemergence; details: for Galium plant response rating: visual injury rating on 0 to 100 scale (0 no effect, 100 complete control)
How it was run: as §2

[11] = system: blackgrass (Alopecurus myosuroides); assay: Test A postemergence; details: for Blackgrass plant response rating: visual injury rating on 0 to 100 scale (0 no effect, 100 complete control)
How it was run: as §2

[12] = system: ryegrass, Italian (Italian ryegrass, Lolium multiflorum); assay: Test A postemergence; details: for Ryegrass, Italian plant response rating: visual injury rating on 0 to 100 scale (0 no effect, 100 complete control)
How it was run: as §2

[13] = system: barnyardgrass (Echinochloa crus-galli); assay: Test A postemergence; details: for Barnyardgrass plant response rating: visual injury rating on 0 to 100 scale (0 no effect, 100 complete control)
How it was run: as §2

[14] = system: giant foxtail (Setaria faberii); assay: Test A postemergence; details: for Foxtail, Giant plant response rating: visual injury rating on 0 to 100 scale (0 no effect, 100 complete control)
How it was run: as §2

[15] = system: Kochia (Kochia scoparia); assay: Test A preemergence; details: for Kochia plant response rating (0 to 100 scale, 0 is no effect, 100 is complete control): visual injury approx. 10 d
How it was run: as §2

[16] = system: pigweed (Amaranthus retroflexus); assay: Test A preemergence; details: for Pigweed plant response rating (0 to 100 scale, 0 is no effect, 100 is complete control): visual injury approx. 10 d
[17] = system: ragweed (common ragweed, Ambrosia elatior); assay: Test A preemergence; details: for Ragweed plant response rating (0 to 100 scale, 0 is no effect, 100 is complete control): visual injury approx. 10 d
How it was run: as §2

[18] = system: ryegrass, Italian (Italian ryegrass, Lolium multiflorum); assay: Test A preemergence; details: for Ryegrass, Italian plant response rating (0 to 100 scale, 0 is no effect, 100 is complete control): visual injury approx. 10 d
How it was run: as §2

[19] = system: barnyardgrass (Echinochloa crus-galli); assay: Test A preemergence; details: for Barnyardgrass plant response rating (0 to 100 scale, 0 is no effect, 100 is complete control): visual injury approx. 10 d
How it was run: as §2

[20] = system: giant foxtail (Setaria faberii); assay: Test A preemergence; details: for Foxtail, Giant plant response rating (0 to 100 scale, 0 is no effect, 100 is complete control): visual injury approx. 10 d
How it was run: as §2

[21] = 125 g ai/ha, postemergence, visual rating after approx. 10 d, 0 to 100 scale (0 no effect, 100 complete control)
[22] = Postemergence, 500 g ai/ha, 0 to 100 scale where 0 is no effect and 100 is complete control
[23] = 125 g ai/ha, postemergence, approx. 10 d
[24] = 125 g ai/ha, Preemergence, visual injury after approximately 10 d, 0 to 100 scale where 0 is no effect and 100 is complete control
[25] = 500 g ai/ha, postemergence, visual injury, 0 to 100 scale (0 no effect, 100 complete control), approx. 10 d
[26] = 500 g ai/ha, preemergence, 0 to 100 scale, 0 = no effect, 100 = complete control
[27] = 500 g ai/ha, postemergence, 0 to 100 scale, 0 no effect, 100 complete control
[28] = 125 g ai/ha, preemergence, 0 to 100 scale (0 no effect, 100 complete control)

O=C1NCC(c2cc(F)ccc2F)C1C(=O)Nc1ccccc1F (racemic) [Compound 544]
20: Plant response rating, Corn [6, 22] | Barnyardgrass plant response rating [13, 23]
30: Plant response rating, Barnyardgrass [19, 24]
45: Plant response rating, Ducksalad [1]
90: Foxtail, Giant plant response rating (0 to 100 scale, 0 is no effect, 100 is complete control) ([20]; Preemergence, 500 g ai/ha)
60: Plant response rating, Foxtail, Giant [14, 22]
0: Plant response rating, Sedge, Umbrella [2] | Plant response rating, Rice [3] | Plant response rating, Kochia [5, 21] | Plant response rating, Kochia [5, 22] | Plant response rating, Corn [6, 21] | Plant response rating, Wheat [7, 21] | Plant response rating, Wheat [7, 22] | Plant response rating, Pigweed [8, 21] | Plant response rating, Pigweed [8, 22] | Plant response rating, Ragweed [9, 21] | Plant response rating, Ragweed [9, 22] | Plant response rating, Galium [10, 21] | Plant response rating, Galium [10, 22] | Blackgrass plant response rating [11, 23] | Plant response rating, Blackgrass [11, 22] | Plant response rating, Ryegrass, Italian [12, 21] | Plant response rating, Ryegrass, Italian [12, 22] | Plant response rating, Foxtail, Giant [14, 21] | Plant response rating, Kochia [15, 24] | Kochia plant response rating (0 to 100 scale, 0 is no effect, 100 is complete control) ([15]; Preemergence, 500 g ai/ha) | Plant response rating, Pigweed [16, 24] | Pigweed plant response rating (0 to 100 scale, 0 is no effect, 100 is complete control) ([16]; Preemergence, 500 g ai/ha) | Plant response rating, Ragweed [17, 24] | Ragweed plant response rating (0 to 100 scale, 0 is no effect, 100 is complete control) ([17]; Preemergence, 500 g ai/ha) | Plant response rating, Ryegrass, Italian [18, 24] | Ryegrass, Italian plant response rating (0 to 100 scale, 0 is no effect, 100 is complete control) ([18]; Preemergence, 500 g ai/ha)
80: Barnyardgrass plant response rating (0 to 100 scale, 0 is no effect, 100 is complete control) ([19]; Preemergence, 500 g ai/ha)
70: Plant response rating, Barnyardgrass [13, 22] | Plant response rating, Foxtail, Giant [20, 24]
25: Plant response rating, Barnyardgrass [4]

Cc1cccc(C2CN(C)C(=O)C2C(=O)Nc2ccccc2F)c1 (stereo not drawn) [Compound 666]
40: Plant response rating, Galium [10, 25]
50: Plant response rating, Ryegrass, Italian [18, 26]
85: Plant response rating, Ducksalad [1]
30: Plant response rating, Kochia [5, 25] | Plant response rating, Galium [10, 21]
70: Plant response rating, Ragweed [17, 26]
60: Plant response rating, Corn [6, 21] | Plant response rating, Wheat [7, 25] | Plant response rating, Blackgrass [11, 21] | Plant response rating, Blackgrass [11, 25] | Plant response rating, Ryegrass, Italian [12, 25] | Plant response rating, Kochia [15, 26]
100: Plant response rating, Foxtail, Giant [20, 24] | Plant response rating, Foxtail, Giant [20, 26]
0: Plant response rating, Sedge, Umbrella [2] | Plant response rating, Rice [3] | Plant response rating, Kochia [5, 21] | Plant response rating, Pigweed [8, 21] | Plant response rating, Pigweed [8, 25] | Plant response rating, Ragweed [9, 21] | Plant response rating, Ragweed [9, 25] | Plant response rating, Pigweed [16, 24] | Plant response rating, Ragweed [17, 24]
90: Plant response rating, Barnyardgrass [13, 21] | Plant response rating, Barnyardgrass [13, 25] | Plant response rating, Foxtail, Giant [14, 21] | Plant response rating, Foxtail, Giant [14, 25] | Plant response rating, Barnyardgrass [19, 24] | Plant response rating, Barnyardgrass [19, 26]
80: Plant response rating, Corn [6, 25]
75: Plant response rating, Barnyardgrass [4]
20: Plant response rating, Wheat [7, 21] | Plant response rating, Ryegrass, Italian [12, 21] | Plant response rating, Kochia [15, 24] | Plant response rating, Pigweed [16, 26] | Plant response rating, Ryegrass, Italian [18, 24]

C=C(Cl)CN1CC(c2cccc(C(F)(F)F)c2)C(C(=O)Nc2cccc(F)c2F)C1=O (stereo not drawn) [Compound 480]
0: Plant response rating, Ducksalad [1] | Plant response rating, Sedge, Umbrella [2] | Plant response rating, Rice [3] | Plant response rating, Barnyardgrass [4] | Kochia plant response rating [5, 23] | Plant response rating, Kochia [5, 22] | Corn plant response rating [6, 23] | Plant response rating, Corn [6, 27] | Wheat plant response rating [7, 23] | Pigweed plant response rating [8, 23] | Plant response rating, Pigweed [8, 22] | Ragweed plant response rating [9, 23] | Plant response rating, Ragweed [9, 22] | Galium plant response rating [10, 23] | Plant response rating, Galium [10, 22] | Blackgrass plant response rating [11, 23] | Plant response rating, Blackgrass [11, 27] | Ryegrass, Italian plant response rating [12, 23] | Plant response rating, Ryegrass, Italian [12, 22] | Barnyardgrass plant response rating [13, 23] | Plant response rating, Kochia [15, 28] | Kochia plant response rating (0 to 100 scale, 0 is no effect, 100 is complete control) ([15]; Preemergence, 500 g ai/ha) | Plant response rating, Pigweed [16, 24] | Pigweed plant response rating (0 to 100 scale, 0 is no effect, 100 is complete control) ([16]; Preemergence, 500 g ai/ha) | Plant response rating, Ragweed [17, 24] | Ragweed plant response rating (0 to 100 scale, 0 is no effect, 100 is complete control) ([17]; Preemergence, 500 g ai/ha) | Plant response rating, Ryegrass, Italian [18, 24] | Ryegrass, Italian plant response rating (0 to 100 scale, 0 is no effect, 100 is complete control) ([18]; Preemergence, 500 g ai/ha) | Plant response rating, Barnyardgrass [19, 28] | Barnyardgrass plant response rating (0 to 100 scale, 0 is no effect, 100 is complete control) ([19]; Preemergence, 500 g ai/ha)
70: Plant response rating, Foxtail, Giant [20, 28]
20: Foxtail, Giant plant response rating [14, 23]
90: Foxtail, Giant plant response rating (0 to 100 scale, 0 is no effect, 100 is complete control) ([20]; Preemergence, 500 g ai/ha)
50: Plant response rating, Foxtail, Giant [14, 22]
30: Plant response rating, Wheat [7, 22] | Plant response rating, Barnyardgrass [13, 27]

Cc1c(F)ccc(NC(=O)C2C(=O)NCC2c2cccc(C(F)(F)F)c2)c1F (stereo not drawn) [Compound 463]
20: Blackgrass plant response rating [11, 23] | Ryegrass, Italian plant response rating (0 to 100 scale, 0 is no effect, 100 is complete control) ([18]; Preemergence, 500 g ai/ha)
90: Foxtail, Giant plant response rating (0 to 100 scale, 0 is no effect, 100 is complete control) ([20]; Preemergence, 500 g ai/ha)
30: Plant response rating, Ryegrass, Italian [12, 27]
80: Barnyardgrass plant response rating (0 to 100 scale, 0 is no effect, 100 is complete control) ([19]; Preemergence, 500 g ai/ha) | Plant response rating, Foxtail, Giant [20, 28]
0: Plant response rating, Sedge, Umbrella [2] | Plant response rating, Rice [3] | Kochia plant response rating [5, 23] | Plant response rating, Kochia [5, 27] | Corn plant response rating [6, 23] | Plant response rating, Corn [6, 27] | Wheat plant response rating [7, 23] | Plant response rating, Wheat [7, 27] | Pigweed plant response rating [8, 23] | Plant response rating, Pigweed [8, 27] | Ragweed plant response rating [9, 23] | Plant response rating, Ragweed [9, 27] | Galium plant response rating [10, 23] | Plant response rating, Galium [10, 27] | Ryegrass, Italian plant response rating [12, 23] | Plant response rating, Kochia [15, 28] | Kochia plant response rating (0 to 100 scale, 0 is no effect, 100 is complete control) ([15]; Preemergence, 500 g ai/ha) | Plant response rating, Pigweed [16, 28] | Pigweed plant response rating (0 to 100 scale, 0 is no effect, 100 is complete control) ([16]; Preemergence, 500 g ai/ha) | Plant response rating, Ragweed [17, 28] | Ragweed plant response rating (0 to 100 scale, 0 is no effect, 100 is complete control) ([17]; Preemergence, 500 g ai/ha) | Plant response rating, Ryegrass, Italian [18, 28]
25: Plant response rating, Barnyardgrass [4]
70: Plant response rating, Ducksalad [1] | Plant response rating, Blackgrass [11, 27] | Plant response rating, Barnyardgrass [13, 27] | Foxtail, Giant plant response rating [14, 23] | Plant response rating, Foxtail, Giant [14, 27]
50: Barnyardgrass plant response rating [13, 23] | Plant response rating, Barnyardgrass [19, 28]
